Target: Carbonic anhydrase V (Homo sapiens, UniProt Q9Y2D0+P35218)

- Ki: 25.4 nM
SMILES: CC1(C)O[C@@H]2[C@@H](CO[C@@]3(COS(N)(=O)=O)OC(C)(C)O[C@@H]23)O1 [TOPIRAMATE]

Source: ChEMBL document CHEMBL1141924 (Bioorg Med Chem Lett, 2005)
